According to patent publication US20230241014A1, “MEK-INHIBITORS FOR THE TREATMENT OR PREVENTION OF CORONAVIRUS INFECTIONS AND/OR COVID-19 CYTOKINE STORM” (priority 2020, published 2023):

How the values were obtained:
[1] = test system: IL-6, IL-8, MCP-1, IP-10 and CCL5 mRNA; assay: Pro-inflammatory cytokine mRNA in SARS-CoV-2 infected Calu-3 cells (real-time PCR); type: cell-based, Homo sapiens; details: Calu-3, SARS-CoV-2 (FI) MOI 0.01, increasing amounts
SARS-CoV-2 = type: cell-based; details: Caco-2, Vero E6, Calu-3; MOI 0.01; 100, 75, 50 μM; 24 h
[2] = test system: peripheral blood mononuclear cells (PBMC's); assay: T-Cell Inflammation Inhibition Assay (PHA Stimulation); type: cell-based, human; details: ATR-002 100, 50, 25 μM, Dexamethasone 100 nM, 24 h
SARS-CoV-2 strain FI = assay: Plaque assay, infection of Vero cells with SARS-CoV-2 upon MEK inhibition; type: cell-based; details: MOI 0.01, 50 μM, 24 h, 36 h and 48 h
Experimental: To determine the virus titer a standard plaque assay was performed. Vero cells were infected with SARS-CoV-2 strain FI (MOI 0.01). 1 hour post infection, the cells were treated with 50 μM ATR-002 or the respective amount of DMSO as a control. The compounds were present in the culture medium during the complete infection time. After 24, 36 and 48 hpi, supernatants were collected and virus titers quantified by plaque assay below.
Vero E6 cells were seeded at 100% confluency in 6-well plates (Greiner Bio-One, Cat. 657-160). 6-fold dilutions of virus samples were prepared in Vero E6 infection medium (IMDM, Gibco, Cat. 12440-053) supplemented with 5% FCS (Capricorn, Cat. FBS-12A) and 1% Penicillin/Streptomycin (Sigma Aldrich Cat. P4333). The cells were washed once with Vero E6 infection medium before infection with 1 mL per well of the virus dilutions for 1 h at 37° C., 5% CO2. […] The virus titer was calculated based on the number of plaques per well and the respective dilution factor.

SARS-CoV-2 (FI) = type: cell-based; details: primary human ALI cultures, MOI 1.0, 50 μM and 100 μM, three cultures
ACE2 = ACE2 expression in Calu-3 cells (immunofluorescence microscopy, WES); type: cell-based, Homo sapiens; details: 100 μM, 24 h
Experimental: After this, it was tested whether ACE2 expression is reduced in cells after ATR-002 treatment. Calu-3 cells were treated with ATR-002 for 24 hours and the results were analysed via immunofluorescence microscopy and WES technology. Specifically, Calu-3 cells were seeded on glass cover slips in 24-well plates, 1×10^5 cells per well and incubated for 48 h at 37° C., 5% CO2 After washing the cells with medium (IMDM with 10% FBS and 1% P/S), 1 mL of 100 μM ATR-002 in medium or 1 mL 1% DMSO in medium (solvent control) were added to the wells and incubated for 24 h at 37° C., 5% CO2.
Then the wells were washed once with PBS and fixed with 300 μL/well 4% PFA in PBS for 10 minutes at room temperature. […] The slides were let dry at 4° C. in the dark and then analysed using a confocal laser scanning microscope (LSM800, Zeiss).

Calu-3 cells = assay: Cytotoxicity evaluation in Calu-3 cells; type: cell-based, Homo sapiens; details: Calu-3, 72 h treatment
Experimental: In a next step, Calu-3 cells were incubated with increasing amounts of ATR-002 over 24, 48 or 72 hours. Specifically, Calu-3 cells were infected with SARS-CoV-2 (FI) using a MOI of 0.01. 1 h.p.i. cells were treated with ATR-002. Mock, SARS-CoV-2 and DMSO served as controls. […] Untreated (SARS-CoV-2) and DMSO (0.1%) treated cells served as negative controls. […] DMSO was used as reference. […] Data in combination with (C) was used to calculate the CC50 value and the selectivity index (SI).

SMILES: O=C(O)c1ccc(F)c(F)c1Nc1ccc(I)cc1Cl [ATR-002, 2-(2-chloro-4-iodophenylamino)-N-3,4-difluoro benzoic acid]
- expression of pro-inflammatory cytokines (IL-6, IL-8, MCP-1, IP-10, CCL5 mRNA) [1]: reduce the expression of pro-inflammatory cytokines
- virus titer via RT-qPCR, effect across cell types (SARS-CoV-2): effect seen on all cell types was comparable
- inhibition of cytokine/chemokine stimulation (summary) [2]: significant, dose dependent inhibition
- viral load (plaque assay) (SARS-CoV-2 strain FI): lower viral load than control cells
- production of progeny viral particles (SARS-CoV-2 (FI)): completely blocked the production of progeny viral particles
- ACE2 on Calu-3 cells (ACE2): reduction of ACE2
- cytotoxicity at antiviral concentrations (Calu-3 cells): non-toxic concentration range
